# Target: EGFR (UniProt P00533)
# Sequence (P00533 whole entry, looked up): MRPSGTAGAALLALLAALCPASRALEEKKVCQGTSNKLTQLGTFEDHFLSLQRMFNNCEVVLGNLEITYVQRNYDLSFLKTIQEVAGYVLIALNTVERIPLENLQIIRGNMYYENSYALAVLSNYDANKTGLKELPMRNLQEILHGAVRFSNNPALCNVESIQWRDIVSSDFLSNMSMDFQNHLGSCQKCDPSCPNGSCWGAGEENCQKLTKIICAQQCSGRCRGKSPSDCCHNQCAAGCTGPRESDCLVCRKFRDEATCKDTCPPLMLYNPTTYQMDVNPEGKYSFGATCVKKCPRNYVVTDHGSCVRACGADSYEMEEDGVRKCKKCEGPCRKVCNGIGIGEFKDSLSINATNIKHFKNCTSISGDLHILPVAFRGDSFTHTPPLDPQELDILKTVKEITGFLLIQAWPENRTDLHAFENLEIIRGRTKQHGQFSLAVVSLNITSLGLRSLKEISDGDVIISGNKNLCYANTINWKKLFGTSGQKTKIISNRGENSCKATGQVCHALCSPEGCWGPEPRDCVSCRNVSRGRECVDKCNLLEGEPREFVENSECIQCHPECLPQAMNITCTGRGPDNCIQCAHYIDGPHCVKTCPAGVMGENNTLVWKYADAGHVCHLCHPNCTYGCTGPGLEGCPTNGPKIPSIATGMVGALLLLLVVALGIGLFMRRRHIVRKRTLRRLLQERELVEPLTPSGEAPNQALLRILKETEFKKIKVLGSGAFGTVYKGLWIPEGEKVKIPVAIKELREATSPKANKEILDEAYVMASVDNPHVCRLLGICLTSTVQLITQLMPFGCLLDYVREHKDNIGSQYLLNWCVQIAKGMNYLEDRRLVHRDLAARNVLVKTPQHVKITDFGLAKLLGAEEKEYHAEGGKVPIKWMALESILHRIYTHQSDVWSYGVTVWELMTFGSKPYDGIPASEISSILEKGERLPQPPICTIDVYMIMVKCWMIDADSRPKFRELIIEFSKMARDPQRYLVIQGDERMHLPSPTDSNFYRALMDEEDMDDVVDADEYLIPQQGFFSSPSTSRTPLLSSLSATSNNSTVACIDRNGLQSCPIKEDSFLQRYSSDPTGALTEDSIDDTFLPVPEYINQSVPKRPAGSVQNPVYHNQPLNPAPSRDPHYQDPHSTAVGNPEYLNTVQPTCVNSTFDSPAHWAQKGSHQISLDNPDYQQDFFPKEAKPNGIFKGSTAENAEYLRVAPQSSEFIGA
row,Compound,IC50 [µM]
1,COC(=O)c1cn2ncnc(C3C(=O)Nc4ccccc43)c2c1C (stereo unspecified),0.003 to 25
2,COc1c(C(=O)NCCCN2CCOCC2)cn2ncnc(C3C(=O)Nc4ccccc43)c12 (stereo unspecified),0.003 to 25
3,CCOC(=O)c1cn2ncnc(C3C(=O)Nc4ccccc43)c2c1OC (stereo unspecified),0.003 to 25
4,Cc1ccc(Nc2ncnn3cc(C(=O)O)c(C)c23)cc1O,0.003 to 25
5,CCc1c(C)c2c(Nc3ccc(C)c(O)c3)ncnn2c1C,0.003 to 25
6,CCc1c(C(=O)NCCCn2ccnc2)cn2ncnc(Nc3ccc4c(cnn4Cc4ccccc4)c3)c12,0.003 to 25
7,Cc1c(NS(=O)(=O)CCCN2CCOCC2)cn2ncnc(C3C(=O)Nc4ccccc43)c12 (stereo unspecified),0.003 to 25
8,COC(=O)c1cn2ncnc(N3CC(=O)Nc4ccccc43)c2c1C,0.003 to 25
9,COC(=O)c1cn2ncnc(C3C(=O)Nc4cc(C#N)ccc43)c2c1C (stereo unspecified),0.003 to 25
10,CCc1c(C(=O)NCCN2CCCC2)cn2nc(C)nc(Nc3ccc(OC)nc3)c12,0.003 to 25
11,CCc1c(C(=O)OC)cn2ncnc(Nc3ccc4c(cnn4Cc4ccccc4)c3)c12,0.003 to 25
12,Fc1cc(Br)ccc1Nc1ncnn2cccc12,0.003 to 25
13,CCCc1c(C(=O)OCC)cn2ncnc(Nc3ccc(C)c(O)c3)c12,0.003 to 25
14,COC(=O)c1cn2ncnc(Nc3cc(O)c4ccccc4c3)c2c1C,0.003 to 25
15,CCOC(=O)c1cn2ncnc(C3C(=O)Nc4ccccc43)c2c1OCC (stereo unspecified),0.003 to 25
16,Cc1nc(Nc2ccc(C)c(O)c2)c2c(C)c(C(N)=O)cn2n1,0.003 to 25
17,COC(=O)c1c(OC)c(OC)c2c(C3C(=O)Nc4ccccc43)ncnn12 (stereo unspecified),0.003 to 25
18,CCC(C)NC(=O)c1cn2ncnc(C3C(=O)Nc4ccccc43)c2c1C (stereo unspecified),0.003 to 25
19,CCOC(=O)c1cn2ncnc(Cl)c2c1CC,0.003 to 25
20,COC(=O)c1cn2ncnc(Nc3ccc(OC)c(O)c3)c2c1C,0.003 to 25
21,CCOC(=O)c1cn2ncnc(Nc3ccc(OC)nc3)c2c1OC,0.003 to 25
22,CCc1ccc(Nc2ncnn3cc(C(=O)OC)c(C)c23)cc1O,0.003 to 25

row,Compound,IC50 [µM]
1,Cc1c(NS(C)(=O)=O)cn2ncnc(C3C(=O)Nc4ccccc43)c12 (stereo unspecified),0.003 to 25
2,COc1c(NCCCCN2CCN(C)CC2)cn2ncnc(C3C(=O)Nc4ccccc43)c12 (stereo unspecified),0.003 to 25
3,Cc1ccc(Nc2ncnn3cc(C(=O)NCCCN4CCN(C)CC4)c(C)c23)cc1O,0.003 to 25
4,Clc1ccc(Nc2ncnn3cccc23)cc1,0.003 to 25
5,CCOC(=O)c1cn2ncnc(NCCc3ccccn3)c2c1CC,0.003 to 25
6,COc1c(NCCCCN2CCOCC2)cn2ncnc(C3C(=O)Nc4ccccc43)c12 (stereo unspecified),0.003 to 25
7,CCOC(=O)c1cn2ncnc(Nc3ccc(C)c(O)c3)c2c1OC,0.003 to 25
8,CCOC(=O)c1cn2ncnc(NCCCn3ccnc3)c2c1CC,0.003 to 25
9,CCOC(=O)c1cn2ncnc(Nc3ccc(C)cc3)c2c1CC,0.003 to 25
10,COC(=O)c1cn2ncnc(C3C(=O)Nc4ccc(S(=O)(=O)NCCN5CCOCC5)cc43)c2c1C (stereo unspecified),0.003 to 25
11,CC(=O)N1CCc2ccc(Nc3ncnn4cccc34)cc21,0.003 to 25
12,Cc1c(C(=O)NCCCCN2CCOCC2)cn2ncnc(C3C(=O)Nc4ccccc43)c12 (stereo unspecified),0.003 to 25
13,COC(=O)c1cn2ncnc(Nc3ccc4[nH]nnc4c3)c2c1C,0.003 to 25
14,COc1cn2ncnc(C3C(=O)Nc4ccccc43)c2c1OC (stereo unspecified),0.003 to 25
15,COC(=O)c1cn2ncnc(-n3[nH]c4ccccc4c3=O)c2c1C,0.003 to 25
16,COCCCNC(=O)c1cn2ncnc(C3C(=O)Nc4ccccc43)c2c1C (stereo unspecified),0.003 to 25
17,Cc1c(OCCn2cncn2)cn2ncnc(C3C(=O)Nc4ccccc43)c12 (stereo unspecified),0.003 to 25
18,Cc1c(C(=O)O)cn2ncnc(C3C(=O)Nc4ccccc43)c12 (stereo unspecified),0.003 to 25
19,COC(=O)c1cn2ncnc(Nc3ccc4cn[nH]c4c3)c2c1C,0.003 to 25
20,COC(=O)c1cn2ncnc(Nc3ccc(C(=O)O)c(O)c3)c2c1C,0.003 to 25
21,CCOC(=O)c1cn2ncnc(NCc3cccc(Br)c3)c2c1CC,0.003 to 25
22,CCOC(=O)c1cn2ncnc(Nc3ccc(C)c(O)c3)c2c1-c1ccccc1,0.003 to 25

row,Compound,IC50 [µM]
1,COC(=O)c1cn2ncnc(Nc3ccc(C)c(N)c3)c2c1C,0.003 to 25
2,COC(=O)c1cn2ncnc(Nc3ccc(Br)cc3F)c2c1C,0.003 to 25
3,CCOC(=O)c1cn2ncnc(Nc3ccc(C)c(O)c3)c2c1Cc1ccccc1,0.003 to 25
4,CCc1c(C(=O)NCCN2CCCC2)cn2ncnc(Nc3ccc(OC)nc3)c12,0.003 to 25
5,Cc1c(NC(=O)NCCN2CCOCC2)cn2ncnc(C3C(=O)Nc4ccccc43)c12 (stereo unspecified),0.003 to 25
6,Cc1ccc(Nc2ncnn3cc(C(=O)OCc4ccccc4)c(C)c23)cc1O,0.003 to 25
7,Cc1ccc(Nc2ncnn3cc(C(=O)N4CCN(C)CC4)c(C)c23)cc1O,0.003 to 25
8,COC(=O)c1cn2ncnc(Nc3ccc4c(c3)OCCO4)c2c1C,0.003 to 25
9,Cc1c(OCCCn2nccn2)cn2ncnc(Nc3ccc(Br)cc3F)c12,0.003 to 25
10,CCOC(=O)c1cn2ncnc(NCC3(O)CCCCC3)c2c1CC,0.003 to 25
11,Fc1cc(Cl)ccc1Nc1ncnn2cccc12,0.003 to 25
12,COC(=O)c1cn2ncnc(Nc3ccc(Cl)c([N+](=O)[O-])c3)c2c1C,0.003 to 25
13,CCc1c(C(=O)OC)cn2ncnc(Nc3ccc(OC)nc3)c12,0.003 to 25
14,Cc1c(C(=O)NCCN2CCOCC2)cn2ncnc(C3C(=O)Nc4ccccc43)c12 (stereo unspecified),0.003 to 25
15,CCCc1c(C(=O)NCCCN2CCOCC2)cn2ncnc(Nc3ccc(C)c(O)c3)c12,0.003 to 25
16,CCc1c(NC(=O)OCc2ccccc2)cn2ncnc(Nc3ccc(OC)nc3)c12,0.003 to 25
17,COC(=O)c1cn2ncnc(Nc3ccc(Br)c(O)c3)c2c1C,0.003 to 25
18,COC(=O)c1cn2ncnc(Nc3ccc(F)c(Cl)c3)c2c1C,0.003 to 25
19,CCOC(=O)c1c(CC)c2c(Nc3ccc4c(cnn4Cc4ccccc4)c3)ncnn2c1Br,0.003 to 25
20,CCOC(=O)c1cn2ncnc(Nc3ccc(Br)cc3)c2c1CC,0.003 to 25

# Further lines, results first:
row,IC50 [µM],Compound
1,0.003 to 25,COc1c(N)cn2ncnc(C3C(=O)Nc4ccccc43)c12 (stereo unspecified)
2,0.003 to 25,COC(=O)c1cc2c(Nc3ccc(F)c(Cl)c3)ncnn2c1
3,0.003 to 25,Cc1nc(C2C(=O)Nc3ccccc32)c2c(C)c(C(=O)NCCN3CCCC3)cn2n1 (stereo unspecified)
4,0.003 to 25,COC(=O)c1cn2ncnc(Nc3cccc(C(=O)NN)c3)c2c1C
5,0.003 to 25,Clc1ccc(Nc2ncnn3c(Br)ccc23)cc1
6,0.003 to 25,CCc1nc(C2C(=O)Nc3ccccc32)c2c(C)c(C(=O)NCCCN(C)C)cn2n1 (stereo unspecified)
7,0.003 to 25,COC(=O)c1cn2ncnc(Nc3ccc(C)c([N+](=O)[O-])c3)c2c1C
8,0.003 to 25,CCOC(=O)c1cn2ncnc(N3CCC4C=CC=CC4C3)c2c1CC (stereo unspecified)
9,0.003 to 25,COc1cn2ncnc(Nc3ccc(C)c(O)c3)c2c1OC
10,0.003 to 25,COC(=O)c1cn2ncnc(C3C(=O)Nc4cc(C(F)(F)F)ccc43)c2c1C (stereo unspecified)
11,0.003 to 25,COC(=O)c1cn2ncnc(C3C(=O)Nc4cc(S(C)(=O)=O)ccc43)c2c1C (stereo unspecified)
12,0.003 to 25,CCc1c(C(=O)NCCN2CCOCC2)c(Br)n2ncnc(Nc3ccc4c(cnn4Cc4ccccc4)c3)c12
13,0.003 to 25,COC(=O)c1cn2ncnc(C3C(=O)Nc4ncccc43)c2c1C (stereo unspecified)
14,0.003 to 25,Cc1ccc(Nc2ncnn3c(C)cc(C)c23)cc1O
15,0.003 to 25,Cc1c(OCCCn2nccn2)cn2ncnc(Nc3cccc(Br)c3)c12
16,0.003 to 25,Cc1ccc(Nc2ncnn3cc(C(=O)NCCN4CCCC4)c(C)c23)cc1O
17,0.003 to 25,COc1c(C(=O)N(C)CCN2CCCC2)cn2ncnc(Nc3ccc(Br)cc3F)c12
18,0.003 to 25,COC(=O)c1cn2ncnc(-n3c(=O)[nH]c4ccccc43)c2c1C
19,0.003 to 25,COC(=O)c1cn2ncnc(Nc3cccc(NC(C)=O)c3)c2c1C
20,0.003 to 25,COC(=O)c1cn2ncnc(Nc3cc(CO)ccc3C)c2c1C
21,0.003 to 25,CCOC(=O)c1cn2ncnc(Nc3ccc(OC)cc3)c2c1CC
22,0.003 to 25,CCOC(=O)c1cn2ncnc(Nc3ccc(C)c(O)c3)c2c1C(C)C
23,0.003 to 25,Cc1c(N)cn2ncnc(C3C(=O)Nc4ccccc43)c12 (stereo unspecified)
24,0.003 to 25,Cc1c(C(=O)NCCCN2CCOCC2)cn2ncnc(C3C(=O)Nc4ccc(S(N)(=O)=O)cc43)c12 (stereo unspecified)
25,0.003 to 25,COC(=O)c1cn2ncnc(-c3c(O)[nH]c4cc(Br)ccc34)c2c1C
26,0.003 to 25,CCCCc1ccc(Nc2ncnn3cc(C(=O)OC)c(C)c23)cc1O

row,IC50 [µM],Compound
1,0.003 to 25,CCOC(=O)c1cn2ncnc(Nc3ccc(F)c(Cl)c3)c2c1CC
2,0.003 to 25,COC(=O)c1cn2ncnc(Nc3cc(C)[nH]n3)c2c1C
3,0.003 to 25,COC(=O)c1cn2ncnc(Nc3ccc(C)c(OC)c3)c2c1C
4,0.003 to 25,COC(=O)c1cn2ncnc(Nc3nc4ccccc4s3)c2c1C
5,0.003 to 25,Cc1ccc(Nc2ncnn3cc(C(=O)NCCCS(C)(=O)=O)c(C)c23)cc1O
6,0.003 to 25,Cc1nc(C2C(=O)Nc3ccccc32)c2c(C)c(C(N)=O)cn2n1 (stereo unspecified)
7,0.003 to 25,CCOC(=O)c1cn2ncnc(NCC3CCCCC3)c2c1CC
8,0.003 to 25,Cc1ccc(Nc2nc(N(C)C)nn3cccc23)cc1O
9,0.003 to 25,CCOC(=O)c1cn2ncnc(C3C(=O)Nc4ccccc43)c2c1C(=O)OCC (stereo unspecified)
10,0.003 to 25,COC(=O)c1cn2ncnc(-n3[nH]c(C)cc3=O)c2c1C
11,0.003 to 25,Cc1ccc(Nc2ncnn3cc(Cn4cncn4)c(C)c23)cc1O
12,0.003 to 25,COc1c(OCc2ccccc2)cn2ncnc(C3C(=O)Nc4ccccc43)c12 (stereo unspecified)
13,0.003 to 25,Cc1ccc(Nc2ncnn3c(C)ccc23)cc1O
14,0.003 to 25,CCOC(=O)c1cn2ncnc(NCc3ccccc3)c2c1CC
15,0.003 to 25,COC(=O)c1cn2ncnc(C3C(=O)Nc4ccc(S(=O)(=O)NCCO)cc43)c2c1C (stereo unspecified)
16,0.003 to 25,CCc1ccn2ncnc(Nc3ccc(C)c(O)c3)c12
17,0.003 to 25,COC(=O)c1cn2ncnc(Nc3ccc4c(cnn4Cc4ccccc4)c3)c2c1C
18,0.003 to 25,Cc1c(CCCN2CCOCC2)cn2ncnc(Nc3cccc(Br)c3)c12
19,0.003 to 25,CCNC(=O)c1cn2ncnc(Nc3ccc4c(cnn4Cc4ccccc4)c3)c2c1CC
20,0.003 to 25,CCOC(=O)c1cn2ncnc(Nc3ccc(Cl)nc3)c2c1CC
21,0.003 to 25,Cc1c(C(=O)NCCCN2CCOCC2)cn2ncnc(C3C(=O)Nc4ccc(F)cc43)c12 (stereo unspecified)
22,0.003 to 25,Cc1ccn2ncnc(Nc3ccc(Br)cc3F)c12
23,0.003 to 25,COC(=O)c1cn2ncnc(Nc3cc(C)cc(O)c3)c2c1C
24,0.003 to 25,CCOC(=O)c1cn2ncnc(Cc3ccc(F)c(Cl)c3)c2c1C(C)C
25,0.003 to 25,CCCc1ccc(Nc2ncnn3cc(C(=O)OC)c(C)c23)cc1O
26,0.003 to 25,CCc1c(C(=O)O)cn2ncnc(Nc3ccc(OC)nc3)c12
